Reference: patent publication US6613738B1, “Cyclic lipopeptide from Cryptosporiopsis quercina possessing antifungal activity” (HMV Corporation, priority 1998, dated 2003)
Numbered stars: 1 amine (or outer) side, 2 acyl side, 3 side chain; on linkers, the order of the positions; unused ones are H or OH. Bridge positions count the residues as written; N and C are the ends. Square brackets hold non-standard residues; d marks the D form. Peptide text beside a SMILES is read from it. * marks the point of attachment. ξ: configuration not given here. ξOrn(4,5-diOH) = O=C(C(CC(O)C(O)N[*:3])N[*:1])[*:2]; ξhTyr(βξ-OH,γξ-OH) = NC(C(=O)O)C(O)C(O)c1ccc(O)cc1; X1 = O=C(C1C(O)C(CO)CN1[*:1])[*:2]; Palmitoyl = CCCCCCCCCCCCCCCC(=O)*; Hyp = O=C(O)[CH]1C[CH](O)CN1

Legend:
Histoplasma capsulatum = format: cell-based
Cryptococcus neoformans = assay: MIC, microbroth dilution assay (NCCLS); format: cell-based
Aspergillus fumigatus = assay: MIC, microbroth dilution assay (NCCLS); format: cell-based
Candida parasilopsis = assay: MIC, microbroth dilution assay (NCCLS); format: cell-based
Candida albicans = assay: MIC, microbroth dilution assay (NCCLS); format: cell-based
nail and skin infections = assay: Nail and skin infections with human volunteers; format: in vivo

Row | Compound | Minimum Inhibitory Concentration (Histoplasma capsulatum) [µg/mL] | Minimum Inhibitory Concentration (Cryptococcus neoformans) [µg/mL] | Minimum Inhibitory Concentration (Aspergillus fumigatus) [µg/mL] | Minimum Inhibitory Concentration (Candida parasilopsis) [µg/mL] | Minimum Inhibitory Concentration (Candida albicans) [µg/mL] | effect on fungus (in words) (Cryptococcus neoformans) | effect on fungus (in words) (Aspergillus fumigatus) | results on nail and skin infections (nail and skin infections)
1 | C[C@@H]1[C@H](O)[C@@H](C)/C=C/C=C/C=C/C=C/C=C/C=C/C=C/[C@H](O[C@@H]2O[C@H](C)[C@@H](O)[C@H](N)[C@@H]2O)C[C@@H]2O[C@](O)(C[C@@H](O)C[C@@H](O)[C@H](O)CC[C@@H](O)C[C@@H](O)CC(=O)O[C@H]1C)C[C@H](O)[C@H]2C(=O)O [Amphotericin B, reference compound] | 0.01 | 0.04 | 0.03 | 0.01 | 0.04 |  |  | 
2 | CCCCCCCCCCCCCCCC(=O)NC1CC(O)C(O)NC(=O)C2C(O)C(CO)CN2C(=O)C(CCC(N)=O)NC(=O)C(C(O)C(O)c2ccc(O)cc2)NC(=O)C2CC(O)CN2C(=O)C(C(C)O)NC1=O (stereo not drawn) [Cryptocandin] (Palmitoyl-[ξOrn(4,5-diOH)]T[Hyp][ξhTyr(βξ-OH,γξ-OH)]Q[X1]; lactam 1-C; configuration not given here) | 0.01 | >20 | >20 | 2.5 | 0.03 | little effect | little effect | promising results
3 | Echinocandin B [reference compound] |  | >20 | >20 |  | 0.3 |  |  | 
